Consider 13 compounds from paper PMC7927863 (Antimicrobial Agents and Chemotherapy, 2020).

Where a name gives a salt, the structure may show the parent alone. Read-outs that look alike come from different tables or passages of the source. A value given as a limit tells only on which side of the number the result lay.

A short description of series [1]: in vitro. The note with it: African green monkey.
Series [2] in a line: in vitro. Particulars: human.
For series [3], the system named is HCoV-OC43. As to the kind of experiment: microbe, parasite or virus in culture. It counts as cell-based. Particulars: for EC50: Betacoronavirus 1, OC43, Huh-7, read-out: Antiviral activity against HCoV-OC43 Huh7 cells EC50; for antiviral activity against HCoV-OC43: up to 20 μM.
Series [4] can be described thus: in vitro. The note with it: human. The source holds these as a separate data set.
The nature of series [5]: in vitro. The note with it: human. This is another data set of the same source.
The subject of series [6] is SARS-CoV-2. Particulars: read-out: reported EC50; Vero E6 cells; cited from earlier work.
Series [7] relates to SARS-CoV-2. It counts as cell-based. Particulars: for virus-yield decrease, CoV-2: nontoxic single dose, 48 h; for antiviral effect on CoV-2 replication: up to 20 μM.
For series [8], the system named is Vero CCL-81 cells.
Series [9] deals with CoV-2 and HCoV-OC43. As to the kind of experiment: sofosbuvir antiviral evaluation in additional cells. It counts as cell-based.
The subject of series [10] is COVID-19. The note with it: 1,063 hospitalized patients; placebo 15 days; P < 0.0001; cited from earlier work.

The EC50 is the concentration at which the effect is half-maximal. On to `Nc1nc(=O)n([C@@H]2CS[C@H](CO)O2)cc1F` [Compound 14, emtricitabine], for which the CC50 in [1], in series [2], in [4] and in series [5] was over 100 µM throughout. Further, in [3], the EC50 was over 20 µM.

Turning to `N#C[C@@]1(c2ccc3c(N)ncnn23)O[C@H](CO)[C@@H](O)[C@H]1O` [Compound 11, GS-441524], the CC50 in series [1], in [2], in series [4] and in [5] was over 100 µM each time. The EC50 was 470 nM in series [6] and over 10 µM in [3]. In addition, the “selectivity index (SI) for SARS-CoV-2” value in [7] (CC50/EC50, Vero cells) was 12. The “virus-yield decrease, CoV-2” value in series [7] (Vero cells) is reported as over 90%.

In [1], `C[C@@]1(O)[C@H](O)[C@@H](CO)O[C@H]1n1ccc(N)nc1=O` [Compound 1, 2′-C-methylcytidine] displayed a CC50 of over 100 µM. The “selectivity index (SI) for SARS-CoV-2” value in [7] (CC50/EC50, Vero cells) is over 10. Further, in [8] (up to 100 μM), the “toxicity in Vero cells” value was “no toxicity”. In addition, the half-maximal effective concentration (EC50) in series [3] came out at 10 ± 0.7 µM.

With `CC(C)OC(=O)[C@H](C)N[P@](=O)(OC[C@H]1O[C@@H](n2ccc(=O)[nH]c2=O)[C@](C)(F)[C@@H]1O)Oc1ccccc1` [Compound 4, sofosbuvir], the CC50 in series [1], in [2], in [4] and in [5] was over 100 µM throughout. The “antiviral effect on CoV-2 replication” value in [7] (Vero cells) was “no antiviral effect”. Also, the EC50 is over 20 µM in series [3]; over 20 µM in series [9] (Betacoronavirus 1, OC43, Calu-3, in Homo sapiens, read-out: EC50 in Calu3 cells); over 20 µM in series [9] (Betacoronavirus 1, OC43, RD, in Homo sapiens, read-out: EC50 in RD cells); over 20 µM in series [9] (Caco-2, read-out: EC50 in Caco-2 cells).

For the compound `Nc1ccn([C@@H]2O[C@@](CO)(CCl)[C@@H](O)[C@H]2F)c(=O)n1` [Compound 5, ALS-8112], the CC50 in series [1] was over 100 µM. The “antiviral effect on CoV-2 replication” value in series [7] (Vero cells) was “did not have a marked effect”. Moreover, in [3], the concentration for a half-maximal effect (EC50) is over 20 µM.

As to `Nc1ccn([C@@H]2CS[C@H](CO)O2)c(=O)n1` [Compound 13, lamivudine], the CC50 in [1], in series [2], in series [4] and in series [5] was over 100 µM throughout. In addition, the “antiviral effect on CoV-2 replication” value in series [7] (Vero cells) is on record as “did not show any activity”. In [3], the EC50 was over 20 µM. Also, the “antiviral activity against HCoV-OC43” value in series [3] (Huh-7 cells) is “did not show any activity”.

`CC(C)OC(=O)[C@H](C)N[P@](=O)(CO[C@H](C)Cn1cnc2c(N)ncnc21)Oc1ccccc1` [Compound 15, tenofovir alafenamide]: the CC50 in series [1] stood at 36.4 µM. In series [3], the concentration giving a half-maximal response (EC50) is over 20 µM.

Regarding `CC(C)OC(=O)OCOP(=O)(CO[C@H](C)Cn1cnc2c(N)ncnc21)OCOC(=O)OC(C)C` [Compound 16, tenofovir disoproxil fumarate], the CC50 in series [1] is over 100 µM. Besides, the “antiviral effect on CoV-2 replication” value in series [7] (Vero cells) is on record as “did not show any activity”. Moreover, in series [3], the EC50 is over 20 µM. Further, the “antiviral activity against HCoV-OC43” value in series [3] (Huh-7 cells) is listed as “did not show any activity”.

In series [1], `NC(=O)c1ncn([C@@H]2O[C@H](CO)[C@@H](O)[C@H]2O)n1` [Compound 12, ribavirin] gave a CC50 of over 100 µM. The “antiviral effect on CoV-2 replication” value in [7] (Vero cells) is on record as “did not exhibit a marked inhibitory effect”. The half-maximal effective concentration (EC50) in [3] is 20.6 µM. Moreover, the “antiviral activity against HCoV-OC43” value in series [3] (Huh-7 cells) is “did not exhibit a marked inhibitory effect”.

For the compound `C[C@@]1(O)[C@H](O)[C@@H](CO)O[C@H]1n1cc(F)c2c(N)ncnc21` [Compound 2, 7-deaza-7-fluoro-2′-C-methyladenosine], the CC50 in series [1] was over 100 µM. The “selectivity index (SI) for SARS-CoV-2” value in series [7] was over 10. Besides, the “toxicity in Vero cells” value in [8] is “no toxicity”. Besides, the half-maximal effective concentration (EC50) in series [3] amounted to 6.7 ± 1.1 µM.

In series [1], `CCC(CC)COC(=O)[C@H](C)N[P@](=O)(OC[C@H]1O[C@@](C#N)(c2ccc3c(N)ncnn23)[C@H](O)[C@@H]1O)Oc1ccccc1` [Compound 10, remdesivir] came in with a CC50 of over 100 µM. In addition, the EC50 in series [6] is 1850 nM; in series [3], 0.04 ± 0.1 µM. In series [7] (CC50/EC50, Vero cells), the “selectivity index (SI) for SARS-CoV-2” value is given as over 100. Besides, the “virus-yield decrease, CoV-2” value in series [7] (Vero cells) is over 90%. Besides, the “selectivity index (SI) for HCoV-OC43” value in series [3] (CC50/EC50, Huh-7 cells) came out at 52. Moreover, in [10], the time to recovery is 11 days.

`C=C1[C@H](CO)[C@@H](O)C[C@@H]1n1cnc2c(=O)[nH]c(N)nc21` [Compound 9, entecavir] gave a CC50 in series [1] of over 100 µM. Also, the EC50 in series [3] is over 20 µM.

As to `NC(=O)c1nc(F)c[nH]c1=O` [Compound 8, favipiravir], the CC50 in [1], in [2], in [4] and in series [5] was over 100 µM throughout. Further, the EC50 in series [3] was 6.8 µM.
